Earlier results, collected in US11480580B2, “Methods and reagents to label bacteria and virus and identify their interacting proteins” (priority 2019, dated 2022).

Test system: ZIKV
Details: prior studies

CN(C)CCCN1c2ccccc2Sc2ccc(Cl)cc21 [chlorpromazine]
ZIKV infection: blocked
